The results in this text go back to patent publication US9670156B2, “Crystal form III of (S)-oxiracetam, preparation method and use thereof” (Chongqing Runze Pharmaceutical Company Limited, priority 2013, dated 2017).

The Cmax is the maximum level reached in the sampled fluid or tissue.

The structures appear in SMILES notation.

Series [1] in a line: Dissolution in aqueous solution compared with other crystal forms. To be noted: compared with other crystal forms of (S)-oxiracetam. The series is classed as physicochemical.
On the set-up of series [2]: species or system Beagle dogs. The note with it: dog, in vivo; for AUCO-∞ / T1/2 / Tmax / bioavailability of crystal form I and III compared: po. The source says:
Base on the existing LC-MS method for determination of (S)-oxiracetam in a biological sample, 6 healthy Beagle dogs are used in the experiment. They are weighted 8-10 kg, and divided into two groups of three. They are used to observe the bioavailability of the different crystal forms of (S)-oxiracetam after oral administration to the dogs. The pharmacokinetics of the crystal forms I and III of (S)-oxiracetam in the dogs are studied. And oxiracetam is used as reference preparation to evaluate whether the bioavailability of crystal forms I and III are equivalent. The bioequivalence is evaluated by calculating the pharmacokinetic parameters. Results: The main pharmacokinetic parameters of the crystal forms I and III of (S)-oxiracetam in the Beagle dogs are as follows: Tmax are (1.561±0.398) and (1.498±0.3988), Cmax are (198.076±80.462) and (186.205±50.321) […], respectively; T1/2 are (0.915±0.125) and (0.909±0.112) h, respectively; and AUCO-∞ are (456.268±85.567) and (436.364±75.204) […], respectively.

On the set-up of series [3]: species or system Beagle dogs. To be noted: dog, in vivo, po.

As for `NC(=O)CN1C[C@@H](O)CC1=O` [crystal form III, (S)-4-hydroxy-2-oxo-1-pyrrolidine acetamide], the “dissolution in aqueous solution” value in series [1] is “dissolves fast”. Also, in series [2], the bioavailability entry is on record as “high bioavailability”, the “AUCO-∞” value worked out at 436364 ± 75204 µg·h/mL, the T1/2 turned out to be 54.5 ± 6.72 min and the Tmax was found to be 1.498±0.3988. For the same molecule, the “bioavailability of crystal form I and III compared” value in series [2] was “exactly the same”. In series [3], this molecule displayed a Cmax of 186 ± 50.3 µg/mL.
As for `NC(=O)CN1C[C@@H](O)CC1=O` [crystal form I, (S)-4-hydroxy-2-oxo-1-pyrrolidine acetamide], in series [2], the “AUCO-∞” value was 456268 ± 85567 µg·h/mL; the T1/2 was 54.9 ± 7.5 min; the Tmax came out at 1.561±0.398; the “bioavailability of crystal form I and III compared” value was “exactly the same”. Also, the highest concentration (Cmax) in series [3] turned out to be 198 ± 80.5 µg/mL.
